Measured values from ChEMBL document CHEMBL1156703, “Antitumor studies -- part 2: structure-activity relationship study for flavin analogs including investigations on their in vitro antitumor assay and docking simulation into protein tyrosine kinase” (Eur J Med Chem, 2008).
In brackets after ≈: the same amount, converted by molar mass.

Tests used:
Protein kinase C (PKC) = test: Inhibition of rat brain protein kinase C
KB = test: Growth inhibition of human KB cells by MTT assay; format: functional, cell-based

| Structure (SMILES) | IC50 (Protein kinase C (PKC)) | IC50 (KB) |
| --- | --- | --- |
| C[C@H]1CNCCN1S(=O)(=O)c1cccc2cnccc12 | 38.4 µg/mL (≈ 132 µM) | – |
| CCn1c2nc(-c3ccccc3)nc(=O)c-2cc2ccccc21 | 12.9 µg/mL (≈ 42.8 µM) | – |
| Cc1ccc2c(c1)cc1c(=O)nc(-c3ccccc3)nc-1n2C | 4.55 µg/mL (≈ 15.1 µM) | 1.17 µg/mL (≈ 3.88 µM) |
| Cn1c2nc(N)nc(=O)c-2cc2ccccc21 | 14.8 µg/mL (≈ 65.4 µM) | – |
| Cn1c2nc(-c3ccccc3)nc(=O)c-2cc2ccccc21 | 3.54 µg/mL (≈ 12.3 µM) | – |
| CCCCCCCCCCCCn1c2nc(=O)[nH]c(=O)c-2cc2ccc(Cl)cc21 | > 100 µg/mL | > 10 µg/mL |
| O=c1nc2n(-c3ccccc3)c3ccccc3cc-2c(=O)[nH]1 | > 100 µg/mL | > 10 µg/mL |
| Cn1c(=O)nc2n(-c3ccccc3)c3ccccc3cc-2c1=O | > 100 µg/mL | > 10 µg/mL |
| Cn1c2nc(=O)n(-c3ccccc3)c(=O)c-2cc2ccccc21 | 60.1 µg/mL (≈ 198 µM) | > 10 µg/mL |
| O=c1nc2n(-c3ccccc3)c3ccccc3cc-2c(=O)n1-c1ccccc1 | > 100 µg/mL | > 10 µg/mL |
| CCCCn1c2nc(-c3ccccc3)nc(=O)c-2cc2ccccc21 | – | 2.53 µg/mL (≈ 7.68 µM) |
| CCn1c2nc(=O)n(C)c(=O)c-2cc2ccccc21 | 46.6 µg/mL (≈ 183 µM) | > 10 µg/mL |
| Cc1ccc2c(c1)cc1c(=O)n(C)c(=O)nc-1n2-c1ccccc1 | 26.4 µg/mL (≈ 83.2 µM) | > 10 µg/mL |
| CCCCn1c2nc(=O)[nH]c(=O)c-2cc2ccccc21 | 89.7 µg/mL (≈ 333 µM) | > 10 µg/mL |
| CCCn1c2nc(=O)n(C)c(=O)c-2cc2ccccc21 | 46 µg/mL (≈ 171 µM) | > 10 µg/mL |
| CCn1c2nc(=O)n(-c3ccccc3)c(=O)c-2cc2ccccc21 | 53.3 µg/mL (≈ 168 µM) | > 10 µg/mL |
| CCn1c2nc(=O)[nH]c(=O)c-2cc2cc(C)ccc21 | 10 µg/mL (≈ 39.2 µM) | > 10 µg/mL |
| CCCCn1c2nc(=O)n(C)c(=O)c-2cc2ccccc21 | 23.9 µg/mL (≈ 84.4 µM) | > 10 µg/mL |
| Nc1ccn([C@@H]2O[C@H](CO)[C@@H](O)[C@@H]2O)c(=O)n1 [CYTARABINE] | – | 0.14 µg/mL (≈ 0.576 µM) |
